Source: patent US10265321B2, “Uses of salt-inducible kinase (SIK) inhibitors” (Dana-Farber Cancer Institute, Inc., priority 2014, dated 2019)

Tests used:
Type in all cases: cell-based, mouse
[1] = system: naïve splenic CD4+ T cells differentiated to Treg or Tr1; assay: Treg and Tr1 T cell differentiation, viability, FoxP3 staining and IL-10 ELISA
Experimental: Balb/c mice were euthanized and splenic CD4+CD62L+ T cells were magnetically enriched (Miltenyi Biotec) to >95% purity and cultured in DMEM media on plates pre-coated with anti-CD3 and anti-CD28 antibodies (clones 145-2C11 and 37.51; BioXCell). Culture media was supplemented with 10 μg/mL anti-IL-4 (clone 11B11; BioXCell), anti-IL-12 (clone C17.8; BioXCell), and anti-IFNγ (clone XMG1.2; BioXCell) as well as TGFβ (2 ng/mL; PeproTech). HG-9-91-01 (100 nM) or DMSO were added at day 0. Cultures were fed with DMEM+IL-2 (10 ng/mL, Peprotech) containing small molecules at day 2 and analyzed at day 4. Cells were stained with blue LIVE/DEADAqua stain (Invitrogen) to discriminate live cells, fixed with Foxp3 Permeabilization Buffer (eBioscience), stained with FITC anti-CD4 (clone RM4-5, Biolegend) and PE anti-Foxp3 (clone FJK-16S, eBioscience) and acquired on a FACSVerse (BD Biosciences). For Th0 and Tr1 differentiations, C57BL/6 mice were euthanized and splenic CD4+CD62L+ T cells were magnetically enriched (Miltenyi Biotec) to >95% purity and cultured in DMEM media on plates pre-coated with anti-CD3 and anti-CD28 antibodies (clones 145-2C11 and 37.51; BioXCell) in the absence of neutralizing antibodies. For Tr1 differentiations, the culture media was supplement with TGFβ (2 ng/mL; PeproTech) and rIL-27 (25 ng/mL; R&D Systems) as described previously (Gagliani N, et al. (2013) Coexpression of CD49b and LAG-3 identifies human and mouse T regulatory type 1 cells. Nature medicine 19(6):739-746). After 4 days, cells were harvested, washed in PBS and stained with LIVE/DEADGreen to discriminate viable cells and eFluor450 anti-CD4 (BioLegend) and acquired on a FACSVerse (BD Biosciences). Absolute cell numbers were enumerated by adding 5000 […] beads (Spherotech) to each well. Analysis was performed using Flowjo (Treestar) excluding samples were significant toxicity was observed. For all differentiation conditions, IL-10 levels were quantified in the culture media at day 4 by ELISA (BD Biosciences).

[2] = system: Il10-Thy1.1 reporter in 10BiT BMDCs; assay: Il10-Thy1.1 reporter gene detection in 10BiT BMDCs; conditions: 2 days treatment (0.5 μM), zymosan 18 hr
Experimental: (§1) Bone marrow-derived DCs were differentiated from C57BL/6 bone marrow in the presence of GM-CSF-conditioned media. CD11c^+ CX3CR1^hi myeloid cells and CD11c^+ CX3CR1^− DCs were isolated from the small intestine lamina propria of Cx3cr1^eGFP/+ mice (12). Detection of cell-surface Thy1.1 expression on BMDCs from 10BiT reporter mice was conducted as described previously (24). Cell viability was estimated by change in total cellular ATP levels using CellTiterGlo assays (Promega). Preparation of recombinant SIK proteins and IC50 measurements were conducted as described previously (21). Total RNA was extracted using a NucleoSpin 96 RNA isolation kit (Macherey-Nagel) followed by cDNA synthesis and multiplex RT-PCR using a microfluidic dynamic array (Fluidigm). The concentrations of TNF-α, IL-6, IL-10, IL-12p40, IL-1β and RANTES in culture supernatants were detected using a FlexSet Cytometric bead array (BD Biosciences). Alternatively, IL-10 secretion was quantified using ELISA (BD Biosciences) or AlphaLISA (PerkinElmer) assays. NO production was estimated based on nitrate content in culture medium using the Greiss reagent.
Preparation of BMDCs from 10BiT reporter mice expressing an il10-Thy1.1 transgene, SIK inhibitor treatment and zymosan stimulation was conducted as described above. […]

BMDCs = assay: Cytokine (cytometric bead array) and NO (Greiss) production by stimulated BMDCs
Experimental: as §1
C57BL/6 mice were euthanized and bone marrow harvested from femurs and tibias as described previously (Graham D B, et al. (2007) An ITAM-signaling pathway controls cross-presentation of particulate but not soluble antigens in dendritic cells. The Journal of experimental medicine 204(12):2889-2897). BMDCs were differentiated DMEM supplemented with 2 mM GlutaMAX, 10% (vol/vol) FBS, penicillin, streptomycin and 2% mouse GM-CSF conditioned media derived from TOPO cells. Cultures were differentiated for 7 days and routinely analyzed for >90% CD11c (APC anti-CD11c clone HL3; BD Biosciences) positivity by flow cytometry before use in experiments. Lentiviral transduction of bone marrow cultures was conducted by addition of 293T culture supernatants containing lentiviral particles encoding the CREB dependent luciferase reporter construct or CRTC3 targeting or control shRNAs one day post-isolation. Stable integration of lentiviral shRNA constructs was selected by addition of puromycin (3 μg/mL) on day 4 post-transduction. After 2 days, stably transduced BMDCs were released from selection and used in subsequent assays. Unless otherwise indicated, cells were treated for 2 days with PGE2 (5 μM) or HG-9-91-01 (0.5 μM) or an equivalent concentration of DMSO (≤0.5%) and then stimulated for 18 hr with LPS (100 ng/mL), R848 (10 μg/mL) or zymosan (4 μg/mL).
After stimulation of cells with microbial ligands, the culture medium was removed, clarified by centrifugation for 10 min at 14,000×g, and the concentration of TNF-α, IL-6, IL-10, IL-12p40, IL-1β and RANTES were measured using FlexSet Cytokine Bead Array (BD Biosciences) according to the manufacturer's instructions. Where indicated, ELISAs were used to detect IL-10 and IL-12p70 (BD Biosciences) according to the manufacturer's instructions. NO production was estimated based on nitrate content in culture medium using the Greiss reagent as described previously (Miletic A V, et al. (2007) Vav proteins control MyD88-dependent oxidative burst. Blood 109(8):3360-3368).

COc1ccc(N(C(=O)Nc2c(C)cccc2C)c2cc(Nc3ccc(N4CCN(C)CC4)cc3)ncn2)c(OC)c1 [HG-9-91-01]
fraction of Foxp3+ cells and IL-10 secretion of Treg's ([1]; 100 nM, 4 days): did not increase the fraction of Foxp3^+ cells or promote IL-10 secretion
concentrations toxic in Treg's and Tr1 cells ([1]; 4 days differentiation): greater than 0.5 μM
IL-10 secretion by Tr1 cells ([1]; non-toxic concentrations, 4 days): not further enhanced
enhancement of the fraction of BMDCs expressing Il10 following zymosan stimulation [2]: more than 5 fold
IL-10 secretion (BMDCs; BMDCs pre-treated, LPS, R848 or zymosan 18 hr): similarly induced
IL-1β production (BMDCs; BMDCs, stimulation with R848 or zymosan): suppressed
production of IL-12p40 and TNF-α (BMDCs; BMDCs, versus PGE2, regardless of activating stimuli): suppressed to a significantly greater extent
